Consider two substances from patent publication US7041636B1, “Composition for counteracting hair loss” (priority 2004, dated 2006).

The subject of the assay is dandruff. Put plainly: dandruff removal trials, topical application before shampooing. In kind it is in vivo. The settings on record: series of trials on subjects; applied twenty minutes before shampooing. From the text: The author of the present inventions has engaged in research, and experimentation in the field of hair care products for a number of years. As a dandruff treatment, they investigated the use of polysorbate 80, procured from the Nourishair Company in the form of a thick gel. […] Based on this experience, they used the product on a number of subjects over a period of ten years. For antiseptic purposes and tactile response, they subsequently decided to add an amount of menthol to the polysorbate 80.

As for polysorbate 60, the dandruff removal result is recorded as “worked well”.

As for polysorbate 80, the dandruff removal entry is “worked well”.
